{"source": "patent US20130266557A1", "about": "“METHODS FOR TREATMENT OF A SARCOMA USING AN EPIMETABOLIC SHIFTER (COENZYME Q10)” (priority 2009, published 2013)", "key": {"NCIES0808 cells [1]": {"test_system": "NCIES0808 cells", "assay": "Western blot analysis", "assay_type": "cell-based, human", "description": "Cells were grown and treated with CoQ10 at 50 uM and 100 uM, along with the proper controls. The total cell lysates (as prepared above) were processed and evaluated by Western blot analysis. Proteins from each treatment group were resolved on SDS-PAGE and transferred onto PVDF membranes. They were then hybridized with antibodies.\nEither 5 or 10 μg of protein was assayed per sample by immunoblotting. Proteins were separated on 10-20% Tris-HCl gels or 4-12% Bis-Tris gels, transferred via electrophoresis to PVDF membranes and blocked using a 5% GE/Amersham ECF blocker and TBST solution prior to incubation with primary antibodies. The primary antibodies were incubated overnight at 4 degrees C. in a 5% BSA and TBST solution. Secondary antibodies were incubated for one hour at room temperature. All antibodies were purchased from commercial vendors. Antibodies were used at the manufacturers' recommended dilution, with the control βActin at a dilution of 1:5000. Blots were developed using GE/Amersham ECF reagent, and results were quantified using the Fuji FL-5100 laser scanner and Bio-Rad Quantity One densitometry analysis software. All blots were also probed for and normalized to their respective βActin expression.\nNCIES0808 cells treated for 24 hours with 50 or 100 μM Q10 were subjected to Western blot analysis and were analyzed to identify protein-level changes relative to the control media samples.\nProtein obtained from the treated cells was evaluated by Western blot analysis against an antibody for Angiotensin-converting enzyme (ACE) (FIG. 4A), an antibody for Caspase 3 (FIG. 4B), an antibody for GARS (FIG. 4C), an antibody for Matrix Metalloproteinase 6 (MMP-6) (FIG. 4D) and a series of antibodies for Neurolysin (NLN) (FIGS. 4E-F)."}, "[2]": {"test_system": "cancer cell lines (SK-MEL-28, SK-MEL-2, SCC, PaCa2, HEP-G2) and control keratinocytes and melanocytes", "assay": "Sensitivity and apoptotic response of a cell line panel (Example 1)", "assay_type": "cell-based", "conditions": "various levels of Coenzyme Q10", "description": "In a first set of experiments, changes to cell morphology/physiology were evaluated by examining the sensitivity and apoptotic response of cells to CoQ10. A panel of skin cell lines including a control cell lines (primary culture of keratinocytes and melanocytes) and several skin cancers cell lines (SK-MEL-28, a non-metastatic skin melanoma; SK-MEL-2, a metastatic skin melanoma; or SCC, a squamous cell carcinoma; PaCa2, a pancreatic cancer cell line; or HEP-G2, a liver cancer cell line) were treated with various levels of Coenzyme Q10."}, "NCIES0808 cells [3]": {"test_system": "NCIES0808 cells", "assay": "Real-time PCR, Human Angiogenesis Arrays", "assay_type": "cell-based", "conditions": "100 uM Q10", "description": "NCIES0808 cells were plated in T25 flasks at a density of 2×10^6 cells per flask in media or media containing 50 uM/100 uM Q10. All treatment groups were run in triplicate. Cells were harvested at 0, 3, 6, 24 or 48 hours. Pictures were taken to examine cell morphology before harvesting. To harvest cells, media was removed but saved to be able to collect floating apoptotic cells. Cells were trypsinized with 1 ml of trypsin-EDTA and the enzyme action was stopped by addition of 4 ml complete media. Trypsinized cells were added to the appropriate tube containing the media with dead cells. Cells were centrifuged at 1200 rpm for 5 minutes and media was aspirated leaving behind the cell pellet for RNA extraction. RNA isolation from cell pellets was carried out with the RNeasy kit (Qiagen, Valencia Calif.) according to the manufacturer's instructions. RNA samples were eluted from spin columns in water; absorbance was measured at 260 nm, 230 nm and 280 nm. The purity of RNA was evaluated by the 260/230 and 280/230 ratios. The concentration of RNA in all of the samples was calculated from absorbance values at […]. First strand cDNA was synthesized from 0.5 ug of all RNA samples using instructions provided with the First strand kit (SABiosciences, Frederick, Md.). The synthesized first strand from a sample was dispensed equally in a PCR array plate containing primers within a pathway (Angiogenesis, Diabetes and Mitochondria) (SABiosciences Corporation, Frederick, Md.). The arrays were amplified with real time PCR using the SYBR green detection methods using manufacturer approved protocols. The ct values from each of the samples were normalized to three housekeeping genes and fold regulation of Q10 treated groups was compared to time matched controls from cells grown in regular media was calculated.\nThe experiments described in this example were performed to test the overall hypothesis that Q10 would have an impact on expression of multiple genes in Ewing's sarcoma cells. The mRNA from NCIES0808 cells treated with 50 μM or 100 μM Q10 for various times was evaluated by RT-PCR against a panel of target proteins involved in human diabetes, human angiogenesis or human mitochondrial pathways.\nCt values obtained from a real time thermocycler were loaded onto the analysis tool on the SABiosciences website for calculation of fold regulation compared to cells with media. The genes that are included in the tables below are those that show a p value of close to 0.05."}, "melanoma cell": {"test_system": "melanoma cell", "assay": "Bcl2 level in the presence of VEGF", "assay_type": "cell-based", "text": "The term “Multidimensional Intracellular Molecule (MIM)”, is an isolated version or synthetically produced version of an endogenous molecule that is naturally produced by the body and/or is present in at least one cell of a human. A MIM is capable of entering a cell and the entry into the cell includes complete or partial entry into the cell as long as the biologically active portion of the molecule wholly enters the cell. MIMs are capable of inducing a signal transduction and/or gene expression mechanism within a cell. MIMs are multidimensional because the molecules have both a therapeutic and a carrier, e.g., drug delivery, effect. MIMs also are multidimensional because the molecules act one way in a disease state and a different way in a normal state."}, "[4]": {"conditions": "cited from earlier work"}, "[5]": {"conditions": "24 hours with 50 or 100 μM Q10, relative to control media"}}, "data": [{"substance": "Coenzyme Q10 [CoQ10]", "values": [{"measurement": "Caspase 3 protein level by Western blot", "setting": "NCIES0808 cells [1]; 24 hours of treatment with 100 μM Q10", "result": "marked downregulation"}, {"measurement": "Angiotensin-converting enzyme (ACE) protein level by Western analysis", "setting": "NCIES0808 cells [1]; [5]", "result": "downregulated"}, {"measurement": "Caspase 3 protein level by Western analysis", "setting": "NCIES0808 cells [1]; [5]", "result": "downregulated"}, {"measurement": "GARS protein level by Western analysis", "setting": "NCIES0808 cells [1]; [5]", "result": "downregulated"}, {"measurement": "Matrix Metalloproteinase 6 protein level by Western analysis", "setting": "NCIES0808 cells [1]; [5]", "result": "downregulated"}, {"measurement": "Neurolysin protein level by Western analysis", "setting": "NCIES0808 cells [1]; [5]", "result": "downregulated"}, {"measurement": "Apoptotic response of cancer vs control cell lines", "setting": "[2]", "result": "induction of apoptosis and cell death in the cancer cells only"}, {"measurement": "Pattern of regulation, ANGPTL3 mRNA", "setting": "NCIES0808 cells [3]; 3 hours", "result": "Down regulation at 3 hours with 100 uM Q10."}, {"measurement": "Pattern of regulation, CCL2 mRNA", "setting": "NCIES0808 cells [3]; 3 hours", "result": "Down regulation at 3 hours with 100 uM Q10."}, {"measurement": "Pattern of regulation, CDH5 mRNA", "setting": "NCIES0808 cells [3]; 3 hours", "result": "Down regulation at 3 and 24 hours with 100 uM Q10."}, {"measurement": "Pattern of regulation, CXCL1 mRNA", "setting": "NCIES0808 cells [3]; 3 hours", "result": "Down regulation at 3 hours with 100 uM Q10"}, {"measurement": "Pattern of regulation, CXCL3 mRNA", "setting": "NCIES0808 cells [3]; 3 hours", "result": "Down regulation at 3 hours with 100 uM Q10."}, {"measurement": "Pattern of regulation, LAMA5 mRNA", "setting": "NCIES0808 cells [3]; 6 hours", "result": "Up regulation at 6 hours with 100 uM Q10."}, {"measurement": "Pattern of regulation, CDH5 mRNA", "setting": "NCIES0808 cells [3]; 24 hours", "result": "Down regulation at 3 and 24 hours with 100 uM Q10."}, {"measurement": "Pattern of regulation, PXLDC1 mRNA", "setting": "NCIES0808 cells [3]; 48 hours", "result": "Up regulation at 48 hours with 100 uM Q10."}, {"measurement": "Level of Bcl2", "setting": "melanoma cell", "result": "decreased level of Bcl2"}, {"measurement": "Solubility in water", "setting": "[4]", "result": "insoluble in water"}]}]}
